The values that follow come from patent US9102591B2, “Benzamides” (H. Lundbeck A/S, priority 2012, dated 2015).

Sequence of P2X7 receptor (Q99572 whole entry): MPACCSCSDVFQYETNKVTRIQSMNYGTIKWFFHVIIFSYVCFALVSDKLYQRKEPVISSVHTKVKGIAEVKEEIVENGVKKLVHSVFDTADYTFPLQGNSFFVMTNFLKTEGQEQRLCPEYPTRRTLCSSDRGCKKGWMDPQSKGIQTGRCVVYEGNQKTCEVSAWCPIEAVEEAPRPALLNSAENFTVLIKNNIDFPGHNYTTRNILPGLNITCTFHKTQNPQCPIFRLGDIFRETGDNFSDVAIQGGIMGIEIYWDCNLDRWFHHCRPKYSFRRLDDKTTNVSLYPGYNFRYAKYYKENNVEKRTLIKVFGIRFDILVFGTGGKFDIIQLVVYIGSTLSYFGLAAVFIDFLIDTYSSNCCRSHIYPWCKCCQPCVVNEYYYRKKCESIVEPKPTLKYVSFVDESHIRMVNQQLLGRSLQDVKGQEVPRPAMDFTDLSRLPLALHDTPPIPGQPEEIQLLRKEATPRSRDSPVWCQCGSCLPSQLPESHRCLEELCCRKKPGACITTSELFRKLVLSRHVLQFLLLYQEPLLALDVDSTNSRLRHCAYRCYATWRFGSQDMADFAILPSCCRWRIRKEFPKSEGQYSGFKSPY

One assay has as its target P2X7 receptor (Homo sapiens (Human), UniProt Q99572). The experiment in a line: P2X7 FLIPR assay (BzATP-stimulated calcium fluorescence, antagonist IC50).
Settings: not given
In kind it is cell-based. Here is the method:
This example illustrates representative assays for use in evaluating the test compounds for antagonist activity. Compounds of the present invention were tested in vitro for their ability to act as antagonists to the P2X7receptor. […]
Cells were plated to cell density of approximately 15,000 cells/well in 384-well assay plates (50 μl/well) with 1.5% low serum media (DMEM, 1.5% FBS, 1% L-glut (2 mM), 10 mM HUES, 1% P/S). Cells were plated 24 hours prior to assay. Cells expressing human, rat or mouse P2X7 receptor were assayed in the following manner.
Fluo-4 NW dye mix (Molecular Probes, Inc., Eugene, Oreg., USA) was prepared in buffer (see manufacturer's instructions). Cell plates were removed from the 37° C. incubator, the media discarded and then 30 μL of dye was added to each well. Plates were placed in the 37° C., non-CO2 incubator for 30 minutes and then room temperature for 30 minutes.
Compound mixtures (A) were added to assay plates containing cells and placed at room temperature for 30 minutes, then BzATP (B) was added. Fluorescence was read using the Tetra FLIPR® (Molecular Devices, Inc., Sunnyvale, Calif., USA) and IC50 values were calculated by standard methods to determine antagonist activity.
By IC50 is commonly meant the midpoint of a concentration-inhibition curve. As to `CS(=O)(=O)c1ccc(Cl)c(C(=O)NCC(CC2CC2)c2ccc(C(F)(F)F)nc2)c1` (single isomer, unassigned; (+)) [(+)2-chloro-N-[3-cyclopropyl-2-[6-(trifluoromethyl)-3-pyridy] [(+)2-chloro-N-[3-cyclopropyl-2-[6-(trifluoromethyl)-3-pyridyl]propyl]-5-methylsulfonyl-benzamide], the IC50 came out at 560 nM.
On the same count and under the same terms, then `O=C(NCC(CC1CC1)c1ccc(C(F)(F)F)nc1)c1c(F)cccc1Cl` (single isomer, unassigned; (+)) [(+)2-chloro-N-[3-cyclopropyl-2-[6-(trifluoromethyl)-3-pyridy] [(+)2-chloro-N-[3-cyclopropyl-2-[6-(trifluoromethyl)-3-pyridyl]propyl]-6-fluoro-benzamide], with 50 nM; and `CC(CNC(=O)c1cccc(F)c1Cl)(CC1CC1)c1cnc(C(F)(F)F)nc1` (single isomer, unassigned; (+)) [(+)2-chloro-N-[3-cyclopropyl-2-methyl-2-[2-(trifluoromethyl)] [(+)2-chloro-N-[3-cyclopropyl-2-methyl-2-[2-(trifluoromethyl)pyrimidin-5-yl]propyl]-3-fluoro-benzamide], with 360 nM.
On the same count and under the same terms, next, `CC(CNC(=O)c1ccccc1Cl)(CC1CC1)c1cnc(C(F)(F)F)nc1` (single isomer, unassigned; (+)) [(+)2-chloro-N-[3-cyclopropyl-2-methyl-2-[2-(trifluoromethyl)] [(+)2-chloro-N-[3-cyclopropyl-2-methyl-2-[2-(trifluoromethyl)pyrimidin-5-yl]propyl]benzamide]: 460 nM; `COc1cccc(C(=O)NCC(CC2CC2)c2cnc(C(F)(F)F)nc2)c1C` (single isomer, unassigned; (+)) [(+)N-[3-cyclopropyl-2-[2-(trifluoromethyl)pyrimidin-5-yl]pro] [(+)N-[3-cyclopropyl-2-[2-(trifluoromethyl)pyrimidin-5-yl]propyl]-3-methoxy-2-methyl-benzamide]: 9 nM; `O=C(NCC(CC1CC1)c1ccc(C(F)(F)F)nc1)c1c(F)cccc1F` (single isomer, unassigned; (+)) [(+)N-[3-cyclopropyl-2-[6-(trifluoromethyl)-3-pyridyl]propyl]] [(+)N-[3-cyclopropyl-2-[6-(trifluoromethyl)-3-pyridyl]propyl]-2,6-difluoro-benzamide]: 740 nM.
The same measure, in the same setting: then `Cc1ncc(C(CNC(=O)c2cccc(Cl)c2Cl)C2CCOCC2)cn1` (single isomer, unassigned; (-)) [(−)2,3-dichloro-N-[2-(2-methylpyrimidin-5-yl)-2-tetrahydropy] [(−)2,3-dichloro-N-[2-(2-methylpyrimidin-5-yl)-2-tetrahydropyran-4-yl-ethyl]benzamide], with 58 nM; and `Cc1ncc(C(CNC(=O)c2cccc(Cl)c2Cl)CC2(C(F)(F)F)CC2)cn1` (single isomer, unassigned; (-)) [(−)2,3-dichloro-N-[2-(2-methylpyrimidin-5-yl)-3-[1-(trifluor] [(−)2,3-dichloro-N-[2-(2-methylpyrimidin-5-yl)-3-[1-(trifluoromethyl)cyclopropyl]propyl]benzamide], with 64 nM; and `O=C(NCC(c1cnc(C(F)(F)F)nc1)C1CCC(F)(F)CC1)c1cccc(Cl)c1Cl` (single isomer, unassigned; (-)) [(−)2,3-dichloro-N-[2-(4,4-difluorocyclohexyl)-2-[2-(trifluor] [(−)2,3-dichloro-N-[2-(4,4-difluorocyclohexyl)-2-[2-(trifluoromethyl)pyrimidin-5-yl]ethyl]benzamide], with 4.3 nM.
Take `O=C(NCC(c1ccc(F)cc1)c1cnc(C(F)(F)F)nc1)c1cccc(Cl)c1Cl` (single isomer, unassigned; (-)) [(−)2,3-dichloro-N-[2-(4-fluorophenyl)-2-[2-(trifluoromethyl)] [(−)2,3-dichloro-N-[2-(4-fluorophenyl)-2-[2-(trifluoromethyl)pyrimidin-5-yl]ethyl]benzamide]: the IC50 came to 1.2 nM.
Still for that read-out and setting: next, `O=C(NCC(c1ccc(F)cc1)c1ccc(C(F)(F)F)nc1)c1cccc(Cl)c1Cl` (single isomer, unassigned; (-)) [(−)2,3-dichloro-N-[2-(4-fluorophenyl)-2-[6-(trifluoromethyl)] [(−)2,3-dichloro-N-[2-(4-fluorophenyl)-2-[6-(trifluoromethyl)-3-pyridyl]ethyl]benzamide]: 9.4 nM; `O=C(NCC(c1cnc(C(F)(F)F)nc1)C1CCOCC1)c1cccc(Cl)c1Cl` (single isomer, unassigned; (-)) [(−)2,3-dichloro-N-[2-tetrahydropyran-4-yl-2-[2-(trifluoromethyl)pyrimidin-5-yl]ethyl]benzamide]: 11 nM.
For `O=C(NCC(CC1(C(F)(F)F)CC1)c1cnc(C(F)(F)F)nc1)c1cccc(Cl)c1Cl` (single isomer, unassigned; (-)) [(−)2,3-dichloro-N-[3-[1-(trifluoromethyl)cyclopropyl]-2-[2-(] [(−)2,3-dichloro-N-[3-[1-(trifluoromethyl)cyclopropyl]-2-[2-(trifluoromethyl)pyrimidin-5-yl]propyl]benzamide], the half-inhibitory concentration (IC50) turned out to be 21 nM.
Same read-out and setting: then `O=C(NCC(CC1(C(F)(F)F)CC1)c1ccc(C(F)(F)F)nc1)c1cccc(Cl)c1Cl` (single isomer, unassigned; (-)) [(−)2,3-dichloro-N-[3-[1-(trifluoromethyl)cyclopropyl]-2-[6-(] [(−)2,3-dichloro-N-[3-[1-(trifluoromethyl)cyclopropyl]-2-[6-(trifluoromethyl)-3-pyridyl]propyl]benzamide], with 25 nM; and `O=C(NCC(CC1CC1)c1cnc(C(F)F)nc1)c1cccc(Cl)c1Cl` (single isomer, unassigned; (-)) [(−)2,3-dichloro-N-[3-cyclopropyl-2-[2-(difluoromethyl)pyrimi] [(−)2,3-dichloro-N-[3-cyclopropyl-2-[2-(difluoromethyl)pyrimidin-5-yl]propyl]benzamide], with 1.9 nM; and `O=C(NCC(CC1CC1)c1cnc(C(F)(F)F)nc1)c1cccc(Cl)c1Cl` (single isomer, unassigned; (-)) [(−)2,3-dichloro-N-[3-cyclopropyl-2-[2-(trifluoromethyl)pyrim] [(−)2,3-dichloro-N-[3-cyclopropyl-2-[2-(trifluoromethyl)pyrimidin-5-yl]propyl]benzamide], with 0.86 nM.
In the case of `CC(C)(O)c1ccc(C(CNC(=O)c2cccc(Cl)c2Cl)CC2CC2)cn1` (single isomer, unassigned; (-)) [(−)2,3-dichloro-N-[3-cyclopropyl-2-[6-(1-hydroxy-1-methyl-et] [(−)2,3-dichloro-N-[3-cyclopropyl-2-[6-(1-hydroxy-1-methyl-ethyl)-3-pyridyl]propyl]benzamide], the IC50 worked out at 30 nM.
Same read-out and setting: next, `O=C(NCC(CC1CC1)c1ccc(C(F)(F)F)nc1)c1cccc(Cl)c1Cl` (single isomer, unassigned; (-)) [(−)2,3-dichloro-N-[3-cyclopropyl-2-[6-(trifluoromethyl)-3-py] [(−)2,3-dichloro-N-[3-cyclopropyl-2-[6-(trifluoromethyl)-3-pyridyl]propyl]benzamide]: 0.31 nM; `O=C(NCC(c1ccccc1)c1ccc(C(F)(F)F)nc1)c1c(Cl)cccc1Cl` (single isomer, unassigned; (-)) [(−)2,6-dichloro-N-[2-phenyl-2-[6-(trifluoromethyl)-3-pyridyl] [(−)2,6-dichloro-N-[2-phenyl-2-[6-(trifluoromethyl)-3-pyridyl]ethyl]benzamide]: 18 nM.
Still for that read-out and setting: then `Cc1ncc(C(CNC(=O)c2c(Cl)cccc2Cl)CC2CC2)cn1` (single isomer, unassigned; (-)) [(−)2,6-dichloro-N-[3-cyclopropyl-2-(2-methylpyrimidin-5-yl)p] [(−)2,6-dichloro-N-[3-cyclopropyl-2-(2-methylpyrimidin-5-yl)propyl]benzamide], with 9.9 nM; and `O=C(NCC(CC1CC1)c1cnc(C(F)(F)F)nc1)c1c(Cl)cccc1Cl` (single isomer, unassigned; (-)) [(−)2,6-dichloro-N-[3-cyclopropyl-2-[2-(trifluoromethyl)pyrim] [(−)2,6-dichloro-N-[3-cyclopropyl-2-[2-(trifluoromethyl)pyrimidin-5-yl]propyl]benzamide], with 0.82 nM; and `O=C(NCC(CC1CC1)c1ccc(C(F)(F)F)nc1)c1c(Cl)cccc1Cl` (single isomer, unassigned; (-)) [(−)2,6-dichloro-N-[3-cyclopropyl-2-[6-(trifluoromethyl)-3-py] [(−)2,6-dichloro-N-[3-cyclopropyl-2-[6-(trifluoromethyl)-3-pyridyl]propyl]benzamide], with 1.2 nM.

The same assay, now with this note: listed as (+)2-chloro-N-[3-cyclopropyl-2-(6-fluoro-3-pyridyl)propyl]benzamide.
Turning to `O=C(NCC(CC1CC1)c1ccc(F)nc1)c1ccccc1Cl` (single isomer, unassigned; (+)) [Example 4w, (+)-2-chloro-N-(3-cyclopropyl-2-(6-fluoropyridin-3-A)propyl)benzamide], the half-maximal inhibitory concentration (IC50) stood at 510 nM.

Still in this assay, the particulars now being: listed as (+)2-chloro-N-[3-cyclopropyl-2-[6-(trifluoromethyl)-3-pyridyl]propyl]benzamide.
As for `O=C(NCC(CC1CC1)c1ccc(C(F)(F)F)nc1)c1ccccc1Cl` (single isomer, unassigned; (+)) [Example 4a, (+)-2-Chloro-N-[3-cyclopropyl-2-[6-(tiifluoromethyl)-3-pyridyl]propyl]benzamide], the IC50 came to 63 nM.
